Assay results as given in patent publication US6469146B1, “Radiopharmaceutical products suitable for the selective labeling of lymphocytes, and their preparation” (Cis Bio International, priority 2000, dated 2002).

Key:
human blood = experiment: Labeling of blood cells: yield of cell labeling in whole blood; format: cell-based; details: 2 mCi (74 MBq) in 3 mL fresh human blood, 10 minutes, after washings
Method: (§1) The radiopharmaceuticals of table I (2 mCi; 74 MBq) are incubated in 3 mL of a fresh sample of human blood for 10 minutes under slow shaking. The blood composition depends upon each sample taken from healthy volunteers (average composition: 1.6±0.3.10^10 Red Globules (RG) and 2.2±0.3.10^7 White Globules (WG) with 1.2±0.3.10^7 Polymorphs (57±9%) and 0.7±0.3.10^7 Lymphocytes (35±4%)]. Non-bound radioactivity is removed by successive washings (2×10 mL of RPMI culture medium 1640) of 10 minutes at 600 g. The yield of cell labeling is determined in a CAPINTEC CRC 120 activimeter. Cell viability is controlled by the Trypan blue exclusion test.
(§2) The results obtained, namely the labeling yield (Yield) and the percentages of activity in the separated fractions are given in tables 3 to 5.

whole blood = experiment: Cell separation on whole blood (Polymorphprep gradient), activity in separated fractions; format: cell-based, human; design: tested at 2 mCi (74 MBq) in 3 mL blood; details: for Cell separation on whole blood (activity %): Polymorphprep: fraction: Polymorphprep gradient; for Cell separation on whole blood (activity %): Erythrocytes: fraction: erythrocytes; for Cell separation on whole blood (activity %): Leukocytes: fraction: leukocytes; for Cell separation on whole blood (activity %): Medium: fraction: medium
Method: as §1, §2
In a first experiment, a separation of the blood constituents is made on a double density Polymorphprep® gradient.
Whole blood from healthy volunteers is labeled with 2 mCi of [^99mTc(ArCS3)2(ArCS2)] following the method described above. The blood constituents are then separated by the Polymorphprep® double density gradient into two separate fractions: lymphocytes and polymorphs/erythrocytes. The whole blood, diluted in 2-3 mL RPMI, is initially delicately placed on the Polymorphprep® gradient and then centrifuged (300 g, 20 min, 37° C.). […] Counting is made on each fraction using a MAXM Y07 00 367 counter in order to confirm cell constitution.

| Molecule | Yield (±3%) of cell labeling (human blood) [%] | Cell separation on whole blood (activity %): Polymorphprep (whole blood) [%] | Cell separation on whole blood (activity %): Erythrocytes (whole blood) [%] | Cell separation on whole blood (activity %): Leukocytes (whole blood) [%] | Cell separation on whole blood (activity %): Medium (whole blood) [%] |
| --- | --- | --- | --- | --- | --- |
| COc1cccc(C(=S)S[S][99Tc]([S]SC(=S)c2cccc(OC)c2)[S]C(=S)c2cccc(OC)c2)c1 [Example 15, [^99mTc(3-MeOPhCS3)2(3-MeOPhCS2)]] | 99 | 2 | 25 | 73 |  |
| CCc1ccccc1C(=S)S[S][99Tc]([S]SC(=S)c1ccccc1CC)[S]C(=S)c1ccccc1CC [Example 9, [^99mTc(2-EtPhCS3)2(2-EtPhCS2)]] | 72 | 2 | 24 | 72 | 2 |
| Oc1ccc(C(=S)S[S][99Tc]([S]SC(=S)c2ccc(O)cc2)[S]C(=S)c2ccc(O)cc2)cc1 [Example 18, [^99mTc(4-OHPhCS3)2(4-OHPhCS2)]] | 93 | 3 | 7 | 89 | 1 |
| CCc1ccccc1C(=S)S[S][99Tc]([S]SC(=S)c1ccccc1CC)[S]C(=S)c1ccccc1CC [Example 10, [^99mTc(2-EtPhCS3)2(2-EtPhCS2)]] | 92 | 2 | 22 | 76 | 2 |
| CCc1ccc(C(=S)S[S][99Tc]([S]SC(=S)c2ccc(CC)cc2)[S]C(=S)c2ccc(CC)cc2)cc1 [Example 8, [^99mTc(4-EtPhCS3)2(4-EtPhCS2)]] | 99 |  | 14 | 85 | 1 |
| Cc1cc(C)c(C(=S)S[S][99Tc]([S]SC(=S)c2cc(C)c(C)cc2C)[S]C(=S)c2cc(C)c(C)cc2C)cc1C [Example 22, [^99mTc(2,4,5-Me3PhCS3)2(2,4,5-Me3PhCS2)]] | 95 | 2 | 20 | 78 |  |
| S=C(S[S][99Tc]([S]SC(=S)c1cccc2ccccc12)[S]C(=S)c1cccc2ccccc12)c1cccc2ccccc12 [Example 23, [^99mTc(1-naphCS3)2(1-naphCS2)]] | 71 | 5 | 46 | 43 | 6 |
| Fc1ccc(C(=S)S[S][99Tc]([S]SC(=S)c2ccc(F)cc2)[S]C(=S)c2ccc(F)cc2)cc1 [Example 19, [^99mTc(4-FPhCS3)2 (4-FPhCS2)]] | 99 | 4 | 15 | 80 | 1 |
| S=C(CCc1ccccc1)S[S][99Tc]([S]SC(=S)CCc1ccccc1)[S]C(=S)CCc1ccccc1 [Example 29, [^99mTc(PhCH2CH2CS3)2(PhCH2CH2CS2)]] | 43 | 6 | 58 | 35 | 1 |
| S=C(S[S][99Tc]([S]SC(=S)c1cccc2ccccc12)[S]C(=S)c1cccc2ccccc12)c1cccc2ccccc12 [Example 24, [^99mTc(1-naphCS3)2(1-naphCS2)]] | 74 |  | 46 | 53 | 1 |
| Fc1ccc(C(=S)S[S][99Tc]([S]SC(=S)c2ccc(F)cc2)[S]C(=S)c2ccc(F)cc2)cc1 [Example 20, [^99mTc(4-FPhCS3)2 (4-FPhCS2)]] | 91 | 4 | 12 | 84 |  |
| S=C(CCc1ccccc1)S[S][99Tc]([S]SC(=S)CCc1ccccc1)[S]C(=S)CCc1ccccc1 [Example 28, [^99mTc(PhCH2CH2CS3)2(PhCH2CH2CS2)]] | 91 | 2 | 16 | 80 | 2 |
| CCOc1ccc(C(=S)S[S][99Tc]([S]SC(=S)c2ccc(OCC)cc2)[S]C(=S)c2ccc(OCC)cc2)cc1 [Example 13, [^99mTc(4-EtOPhCS3)2(4-EtOPhCS2)]] | 99 | 1 | 29 | 70 |  |
| [^99mTc(C6H12CS3)2CS2(C6H12CS2)] [Example 30] | 97 | 10 | 13 | 75 | 2 |
| S=C(Cc1ccccc1)S[S][99Tc]([S]SC(=S)Cc1ccccc1)[S]C(=S)Cc1ccccc1 [Example 27, [^99mTc(PhCH2CS3)2(PhCH2CS2)]] | 88 | 10 | 11 | 77 | 1 |
| Cc1cc(C)c(C(=S)S[S][99Tc]([S]SC(=S)c2cc(C)c(C)cc2C)[S]C(=S)c2cc(C)c(C)cc2C)cc1C [Example 21, [^99mTc(2,4,5-Me3PhCS3)2(2,4,5-Me3PhCS2)]] | 90 | 2 | 15 | 82 | 1 |
| [^99mTc(C6H12CS3)2CS2(C6H12CS2)] [Example 31] | 63 | 3 | 29 | 68 |  |
| CCc1ccc(C(=S)S[S][99Tc]([S]SC(=S)c2ccc(CC)cc2)[S]C(=S)c2ccc(CC)cc2)cc1 [Example 7, [^99mTc(4-EtPhCS3)2(4-EtPhCS2)]] | 93 | 3 | 12 | 83 | 2 |
| CCCCc1ccc(C(=S)S[S][99Tc]([S]SC(=S)c2ccc(CCCC)cc2)[S]C(=S)c2ccc(CCCC)cc2)cc1 [Example 12, [^99mTc(4-nBuPhCS3)2(4-nBuPhCS2)]] | 100 | 4 | 29 | 66 | 1 |
| CCCCc1ccc(C(=S)S[S][99Tc]([S]SC(=S)c2ccc(CCCC)cc2)[S]C(=S)c2ccc(CCCC)cc2)cc1 [Example 11, [^99mTc(4-nBuPhCS3)2(4-nBuPhCS2)]] | 97 | 1 | 53 | 46 |  |
| Cc1ccc(C(=S)S[S][99Tc]([S]SC(=S)c2ccc(C)cc2)[S]C(=S)c2ccc(C)cc2)cc1 [Example 6, [^99mTc(4-MePhCS3)2(4-MePhCS2)]] | 95 | 2 | 20 | 78 |  |
| [^99mTc(2-Me-naphCS3)2(2-Me-naphCS2)] [Example 25] | 96 | 4 | 10 | 85 | 1 |
| [^99mTc(2-Me-naphCS3)2(2-Me-naphCS2)] [Example 26] | 85 | 2 | 15 | 79 | 4 |
| Oc1ccc(C(=S)S[S][99Tc]([S]SC(=S)c2ccc(O)cc2)[S]C(=S)c2ccc(O)cc2)cc1 [Example 17, [^99mTc(4-OHPhCS3)2(4-OHPhCS2)]] | 93 | 1 | 12 | 85 | 2 |
